# Measurements taken from patent US20240279205A1, “NOVEL BENZIMIDAZOLE DERIVATIVE” (Carna Biosciences, Inc., priority 2020, published 2024).
# Structures can show the parent of a compound that is named as a salt.
# Target: T1, human STING (hSTING) (Homo sapiens, UniProt Q86WV6)
# T1 construct: host or cells: HEK-Blue ISG cells (HEK293-derived SEAP reporter line)
# Experiment: Inhibition test of intracellular human STING (hSTING) pathway using SEAP reporter cells (HEK-Blue ISG), stimulation with Compound 3
# Assay type: cell-based
# Design: hSTING inhibitory activity: scale not given here
# Settings: Compound 3 10 nM stimulation, 21 hours
# Method: Inhibition test of intracellular human STING (hSTING) pathway using reporter cells
# Since STING activates the transcription factor IRF3 upon ligand stimulation, the activity of STING can be evaluated by a reporter assay using a secretory alkaline phosphatase (SEAP reporter) integrated downstream of an IRF-inducible promoter.
# That is, the hSTING inhibitory activity of the test compound was evaluated using HEK-Blue™MISG cells (manufactured by Invivogen, #hkb-isg-1) incorporating a SEAP reporter. Activation of hSTING was performed by stimulation with the small molecule ligand Compound 3 as described in the literature (Ramanjulu, J. M., et al., Nature. 2018, 564 (7736), 439-443). HEK-Blue™MISG cells were seeded in a 96-well plate and cultured overnight at 37° C. in a 5% CO2 incubator. To each well of this cell culture plate, a test compound solution adjusted to a final concentration of 0.1 to 10 µM of the test compound was added, cultured for 1 hour in a CO2 incubator, and then Compound 3 (final concentration 10 nM) was added and further cultured in a CO2 incubator for 21 hours. After collecting the culture supernatant of each well, the reporter activity was measured by color development reaction with alkaline phosphatase.
# The reporter activity of the test compound non-addition and Compound 3 addition group was set to 100%, and the reporter activity of the test compound non-addition and Compound 3 non-addition group was set to 0%. The IC50 value was determined by regression analysis of the inhibitory rate determined from the reporter activity at each compound concentration and the test compound concentration (logarithm).
# T1 sequence (Q86WV6 whole entry H232R): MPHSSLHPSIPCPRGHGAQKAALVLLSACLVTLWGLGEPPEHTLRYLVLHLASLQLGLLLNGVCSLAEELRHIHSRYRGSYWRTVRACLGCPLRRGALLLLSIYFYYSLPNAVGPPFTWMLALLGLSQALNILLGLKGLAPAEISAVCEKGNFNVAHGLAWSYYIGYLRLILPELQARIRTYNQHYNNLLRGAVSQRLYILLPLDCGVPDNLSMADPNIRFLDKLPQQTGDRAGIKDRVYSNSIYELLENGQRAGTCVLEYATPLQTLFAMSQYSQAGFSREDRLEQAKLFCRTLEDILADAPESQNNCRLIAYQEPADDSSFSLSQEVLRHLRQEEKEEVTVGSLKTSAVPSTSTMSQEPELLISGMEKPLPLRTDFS
row,Structure (SMILES),hSTING inhibitory activity
1,"COC(=O)c1ccc2[nH]c(Nc3c[nH]c4ccc(Br)nc34)nc2c1 [Embodiment 34, methyl 2-[(5-bromo-1H-pyrrolo[3,2-b]pyridin-3-yl)amino]-1H-benzo[d]imidazole-5-carboxylate]",* *
2,"Cn1c(Nc2c[nH]c3ccc(Br)cc23)nc2ccc(Oc3ccccc3)cc21 [Embodiment 39, N-(5-bromo-1H-indol-3-yl)-1-methyl-6-phenoxy-1H-benzo[d]imidazol-2-amine]",* *
3,"Cn1c(Nc2c[nH]c3ccc(Br)nc23)nc2ccc(Oc3ccccc3)cc21 [Embodiment 40, N-(5-bromo-1H-pyrrolo[3,2-b]pyridin-3-yl)-1-methyl-6-phenoxy-1H-benzo[d]imidazol-2-amine]",* * *
4,"Cn1c(Nc2c[nH]c3ccc(Br)nc23)nc2cc(Oc3ccccc3)ccc21 [Embodiment 41, N-(5-bromo-1H-pyrrolo[3,2-b]pyridin-3-yl)-1-methyl-5-phenoxy-1H-benzo[d]imidazol-2-amine]",* * *
5,"Cn1c(Nc2c[nH]c3ccc(Br)nc23)nc2cc(C(F)(F)F)ccc21 [Embodiment 43, N-(5-bromo-1H-pyrrolo[3,2-b]pyridin-3-yl)-1-methyl-5-(trifluoromethyl)-1H-benzo[d]imidazol-2-amine]",* * *
6,"c1ccc(Oc2ccc3[nH]c(Nc4c[nH]c5cc(-c6ccccc6)cnc45)nc3c2)cc1 [Embodiment 51, 5-phenoxy-N-(6-phenyl-1H-pyrrolo[3,2-b]pyridin-3-yl)-1H-benzo[d]imidazol-2-amine]",* *
7,"FC(F)(F)c1ccc2[nH]cc(Nc3nc4cc(Oc5ccccc5)ccc4[nH]3)c2n1 [Embodiment 55, 5-phenoxy-N-[5-(trifluoromethyl)-1H-pyrrolo[3,2-b]pyridin-3-yl]-1H-benzo[d]imidazol-2-amine]",* *
8,"Brc1ccc2[nH]cc(Nc3nc4c(-c5ccccc5)cccc4[nH]3)c2n1 [Embodiment 62, N-(5-bromo-1H-pyrrolo[3,2-b]pyridin-3-yl)-4-phenyl-1H-benzo [d]imidazol-2-amine]",* *
9,"Cn1nccc1Oc1ccc2[nH]c(Nc3c[nH]c4ccc(Br)nc34)nc2c1 [Embodiment 63, N-(5-bromo-1H-pyrrolo[3,2-b]pyridin-3-yl)-5-[(1-methyl-1H-pyrazol-5-yl)oxy]-1H-benzo[d] imidazol-2-amine]",* *
10,"CN(C)c1cccc(Oc2ccc3[nH]c(Nc4c[nH]c5ccc(Br)nc45)nc3c2)c1 [Embodiment 65, N-(5-bromo-1H-pyrrolo[3,2-b]pyridin-3-yl)-5-[3-(dimethylamino)phenoxy]-1H-benzo[d]imidazol-2-amine]",* *
11,"CS(=O)(=O)c1cccc(Oc2ccc3[nH]c(Nc4c[nH]c5ccc(Br)nc45)nc3c2)c1 [Embodiment 67, N-(5-bromo-1H-pyrrolo[3,2-b]pyridin-3-yl)-5-[3-(methylsulfonyl)phenoxy]-1H-benzo[d]imidazol-2-amine]",* *
12,"Brc1ccc2[nH]cc(Nc3nc4cc(OCc5ccccc5)ccc4[nH]3)c2n1 [Embodiment 69, 5-(benzyloxy)-N-(5-bromo-1H-pyrrolo[3,2-b]pyridin-3-yl)-1H-benzo[d]imidazol-2-amine]",* *
13,"Cn1cc(-c2ccnc3c(Nc4nc5cc(Oc6ccccc6)ccc5[nH]4)c[nH]c23)cn1 [Embodiment 71, N-[7-(1-methyl-1H-pyrazol-4-yl)-1H-pyrrolo[3,2-b]pyridin-3-yl]-5-phenoxy-1H-benzo[d]imidazole-2-amine formate]",* *
14,"CN(c1ccccc1)S(=O)(=O)c1ccc2[nH]c(Nc3c[nH]c4ccc(Cl)nc34)nc2c1 [Embodiment 75, 2-[(5-Chloro-1H-pyrrolo[3,2-b]pyridin-3-yl)amino]-N-methyl-N-phenyl-1H-benzo[d]imidazole-5-sulfonamide]",* *

# Same assay, conditions: Compound 3 10 nM stimulation, 21 hours, read-out: hSTING inhibitory activity
row,Structure (SMILES),IC50
1,"O=C(O)c1ccc2[nH]c(Nc3c[nH]c4ccc(Br)nc34)nc2c1 [Embodiment 37, 2-[(5-bromo-1H-pyrrolo[3,2-b]pyridin-3-yl)amino]-1H-benzo[d]imidazole-5-carboxylic acid]",≥ 10 µM
2,"Cn1c(Nc2c[nH]c3ccc(Br)nc23)nc2ccc(C(F)(F)F)cc21 [Embodiment 42, N-(5-bromo-1H-pyrrolo[3,2-b]pyridin-3-yl)-1-methyl-6-(trifluoromethyl)-1H-benzo[d]imidazol-2-amine]",≥ 10 µM
3,"Cn1c(Nc2c[nH]c3ccc(Cl)nc23)nc2ccc(C(F)(F)F)cc21 [Embodiment 46, N-(5-Chloro-1H-pyrrolo[3,2-b]pyridin-3-yl)-1-methyl-6-(trifluoromethyl)-1H-benzo[d] imidazol-2-amine]",≥ 10 µM
4,"C1=C(c2ccc3[nH]cc(Nc4nc5cc(Oc6ccccc6)ccc5[nH]4)c3n2)CCCC1 [Embodiment 48, N-[5-(Cyclohex-1-en-1-yl)-1H-pyrrolo[3,2-b]pyridin-3-yl]-5-phenoxy-1H-benzo[d]imidazol-2-a mine]",1 to 10 µM
5,"Brc1cnc2c(Nc3nc4cc(Oc5ccccc5)ccc4[nH]3)c[nH]c2c1 [Embodiment 49, N-(6-bromo-1H-pyrrolo[3,2-b]pyridin-3-yl)-5-phenoxy-1H-benzo[d]imidazol-2-amine]",1 to 10 µM
6,"COc1cccc2[nH]c(Nc3c[nH]c4ccc(Br)nc34)nc12 [Embodiment 61, N-(5-bromo-1H-pyrrolo[3,2-b]pyridin-3-yl)-4-methoxy-1H-benzo[d]imidazol-2-amine]",1 to 10 µM
7,"CS(=O)(=O)c1ccc(Oc2ccc3[nH]c(Nc4c[nH]c5ccc(Br)nc45)nc3c2)cc1 [Embodiment 66, N-(5-bromo-1H-pyrrolo[3,2-b]pyridin-3-yl)-5-[4-(methylsulfonyl)phenoxy]-1H-benzo[d]imidazol-2-amine]",1 to 10 µM
8,"CS(=O)(=O)c1ccccc1Oc1ccc2[nH]c(Nc3c[nH]c4ccc(Br)nc34)nc2c1 [Embodiment 68, N-(5-bromo-1H-pyrrolo[3,2-b]pyridin-3-yl)-5-[2-(methylsulfonyl)phenoxy]-1H-benzo[d]imidazol-2-amine]",≥ 10 µM
9,"CN(C)c1ccnc2c(Nc3nc4cc(Oc5ccccc5)ccc4[nH]3)c[nH]c12 [Embodiment 70, N7,N7-dimethyl-N3-(5-phenoxy-1H-benzo[d]imidazol-2-yl)-1H-pyrrolo[3,2-b]pyridine-3,7-diamine formate]",≥ 10 µM
10,"FC(F)(F)c1cnc2[nH]cc(Nc3nc4cc(Oc5ccccc5)ccc4[nH]3)c2c1 [Embodiment 74, 5-phenoxy-N-[5-(trifluoromethyl)-1H-pyrrolo[2,3-b]pyridin-3-yl]-1H-benzo[d]imidazol-2-amine formate]",1 to 10 µM
11,"Oc1ccnc2c(Nc3nc4cc(Oc5ccccc5)ccc4[nH]3)c[nH]c12 [Embodiment 76, 3-[(5-phenoxy-1H-benzo[d]imidazol-2-yl)amino]-1H-pyrrolo [3,2-b]pyridin-7-ol formate]",≥ 10 µM
12,"CN(C)Cc1cccc(Oc2ccc3[nH]c(Nc4c[nH]c5ccc(Cl)nc45)nc3c2)c1 [Embodiment 81, N-(5-chloro-1H-pyrrolo[3,2-b]pyridin-3-yl)-5-{3-[(dimethylamino)methyl]phenoxy}-1H-benzo [d]imidazole-2-amine formate]",1 to 10 µM
